What was measured:
Type in all cases: in vivo
Settings in all cases: 250 g/h, evaluated after 13 days
[1] = tested on: Alopecurus myosuroides (ALOMY); experiment: Pre-emergence herbicidal glasshouse test, percentage damage
In short: (§1)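 Compounds applied at 250 g/h, formulated in 50:50 acetone/water plus 0.5% Tween 20, onto potted plants one day (pre-emergence) or 8 days (post-emergence) after sowing. Scoring of damage at day 13 used a five-point scale.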

[2] = tested on: Avena fatua (AVEFA); experiment: as above
In short: as §1

[3] = tested on: Echinochloa crus-galli (ECHCG); experiment: as above
In short: as §1

[4] = tested on: Lolium perenne (LOLPE); experiment: as above
In short: as §1

[5] = tested on: Setaria faberi (SETFA); experiment: as above
In short: as §1

[6] = tested on: Setaria faberi (SETFA); experiment: Post-emergence herbicidal glasshouse test, percentage damage
In short: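 Wheat, barley and Setaria faberi were sprayed post-emergence after 8 days' growth (24/16 °C, 14 h light, 65% humidity) with compound in acetone/water (50:50) containing 0.5% Tween 20, at the indicated rates. On wheat, compounds were also applied with cloquintocet-mexyl at 50 g/ha. Damage was scored after 13 days on a five-point scale (5=80-100% to 1=0-19%).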

[7] = tested on: Alopecurus myosuroides (ALOMY); experiment: as above
In short: as §1

[8] = tested on: Avena fatua (AVEFA); experiment: as above
In short: as §1

[9] = tested on: Echinochloa crus-galli (ECHCG); experiment: as above
In short: as §1

[10] = tested on: Lolium perenne (LOLPE); experiment: as above
In short: as §1

CC#Cc1cc(C)c(C2C(=O)CC3(CCN(C(=O)CCc4ccccn4)CC3)CC2=O)c(C)c1 [Compound A184]
ALOMY PRE percentage damage (five point scale) [1]: 1 (1=0-19%) | AVEFA PRE percentage damage (five point scale) [2]: 2 (2=20-39%) | ECHCG PRE percentage damage (five point scale) [3]: 4 (4=60-79%) | LOLPE PRE percentage damage (five point scale) [4]: 5 (5=80-100%) | SETFA PRE percentage damage (five point scale) [5]: 5 (5=80-100%) | SETFA POST percentage damage (five point scale) [6]: 5 (5=80-100%) | ALOMY POST percentage damage (five point scale) [7]: 4 (4=60-79%) | AVEFA POST percentage damage (five point scale) [8]: 5 (5=80-100%) | ECHCG POST percentage damage (five point scale) [9]: 5 (5=80-100%) | LOLPE POST percentage damage (five point scale) [10]: 5 (5=80-100%)

CC#Cc1cc(C)c(C2C(=O)CC3(CCN(C(=O)[C@H](C)OC)CC3)CC2=O)c(C)c1 [Compound A153]
ALOMY PRE percentage damage (five point scale) [1]: 5 (5=80-100%) | AVEFA PRE percentage damage (five point scale) [2]: 5 (5=80-100%) | ECHCG PRE percentage damage (five point scale) [3]: 5 (5=80-100%) | LOLPE PRE percentage damage (five point scale) [4]: 5 (5=80-100%) | SETFA PRE percentage damage (five point scale) [5]: 5 (5=80-100%) | SETFA POST percentage damage (five point scale) [6]: 5 (5=80-100%) | ALOMY POST percentage damage (five point scale) [7]: 5 (5=80-100%) | AVEFA POST percentage damage (five point scale) [8]: 5 (5=80-100%) | ECHCG POST percentage damage (five point scale) [9]: 5 (5=80-100%) | LOLPE POST percentage damage (five point scale) [10]: 5 (5=80-100%)

CC#Cc1cc(C)c(C2C(=O)CC3(CCN([S+]([O-])C(F)F)CC3)CC2=O)c(C)c1 (centres unmarked) [Compound A81]
ALOMY PRE percentage damage (five point scale) [1]: 5 (5=80-100%) | AVEFA PRE percentage damage (five point scale) [2]: 5 (5=80-100%) | ECHCG PRE percentage damage (five point scale) [3]: 5 (5=80-100%) | LOLPE PRE percentage damage (five point scale) [4]: 5 (5=80-100%) | SETFA PRE percentage damage (five point scale) [5]: 5 (5=80-100%) | SETFA POST percentage damage (five point scale) [6]: 5 (5=80-100%) | ALOMY POST percentage damage (five point scale) [7]: 5 (5=80-100%) | AVEFA POST percentage damage (five point scale) [8]: 5 (5=80-100%) | ECHCG POST percentage damage (five point scale) [9]: 5 (5=80-100%) | LOLPE POST percentage damage (five point scale) [10]: 5 (5=80-100%)

CC#Cc1cc(C)c(C2C(=O)CC3(CCN(C(=O)CC4OCCO4)CC3)CC2=O)c(C)c1 [Compound A151]
ALOMY PRE percentage damage (five point scale) [1]: 5 (5=80-100%) | AVEFA PRE percentage damage (five point scale) [2]: 5 (5=80-100%) | ECHCG PRE percentage damage (five point scale) [3]: 5 (5=80-100%) | LOLPE PRE percentage damage (five point scale) [4]: 5 (5=80-100%) | SETFA PRE percentage damage (five point scale) [5]: 5 (5=80-100%) | SETFA POST percentage damage (five point scale) [6]: 5 (5=80-100%) | ALOMY POST percentage damage (five point scale) [7]: 5 (5=80-100%) | AVEFA POST percentage damage (five point scale) [8]: 5 (5=80-100%) | ECHCG POST percentage damage (five point scale) [9]: 5 (5=80-100%) | LOLPE POST percentage damage (five point scale) [10]: 5 (5=80-100%)

CC#Cc1cc(C)c(C2C(=O)CC3(CCN(C(=O)[C@H]4COCCO4)CC3)CC2=O)c(C)c1 [Compound A173]
ALOMY PRE percentage damage (five point scale) [1]: 5 (5=80-100%) | AVEFA PRE percentage damage (five point scale) [2]: 5 (5=80-100%) | ECHCG PRE percentage damage (five point scale) [3]: 5 (5=80-100%) | LOLPE PRE percentage damage (five point scale) [4]: 5 (5=80-100%) | SETFA PRE percentage damage (five point scale) [5]: 5 (5=80-100%) | SETFA POST percentage damage (five point scale) [6]: 5 (5=80-100%) | ALOMY POST percentage damage (five point scale) [7]: 5 (5=80-100%) | AVEFA POST percentage damage (five point scale) [8]: 5 (5=80-100%) | ECHCG POST percentage damage (five point scale) [9]: 5 (5=80-100%) | LOLPE POST percentage damage (five point scale) [10]: 5 (5=80-100%)

CC#Cc1cc(C)c(C2=C(OC(=O)c3ccccc3F)CC3(CCN(C(=O)c4ccccc4F)CC3)CC2=O)c(C)c1 [Compound P20]
ALOMY PRE percentage damage (five point scale) [1]: 5 (5=80-100%) | AVEFA PRE percentage damage (five point scale) [2]: 3 (3=40-59%) | ECHCG PRE percentage damage (five point scale) [3]: 5 (5=80-100%) | LOLPE PRE percentage damage (five point scale) [4]: 5 (5=80-100%) | SETFA PRE percentage damage (five point scale) [5]: 5 (5=80-100%) | SETFA POST percentage damage (five point scale) [6]: 5 (5=80-100%) | ALOMY POST percentage damage (five point scale) [7]: 5 (5=80-100%) | AVEFA POST percentage damage (five point scale) [8]: 5 (5=80-100%) | ECHCG POST percentage damage (five point scale) [9]: 5 (5=80-100%) | LOLPE POST percentage damage (five point scale) [10]: 5 (5=80-100%)

CC#Cc1cc(C)c(C2C(=O)CC3(CCN(C(=O)c4ccc(C#N)nc4)CC3)CC2=O)c(C)c1 [Compound A191]
ALOMY PRE percentage damage (five point scale) [1]: 2 (2=20-39%) | AVEFA PRE percentage damage (five point scale) [2]: 4 (4=60-79%) | ECHCG PRE percentage damage (five point scale) [3]: 5 (5=80-100%) | LOLPE PRE percentage damage (five point scale) [4]: 5 (5=80-100%) | SETFA PRE percentage damage (five point scale) [5]: 5 (5=80-100%) | SETFA POST percentage damage (five point scale) [6]: 5 (5=80-100%) | ALOMY POST percentage damage (five point scale) [7]: 5 (5=80-100%) | AVEFA POST percentage damage (five point scale) [8]: 5 (5=80-100%) | ECHCG POST percentage damage (five point scale) [9]: 5 (5=80-100%) | LOLPE POST percentage damage (five point scale) [10]: 5 (5=80-100%)

CC#Cc1cc(C)c(C2=C(OS(=O)(=O)c3ccccn3)CC3(CCN(S(=O)(=O)c4ccccn4)CC3)CC2=O)c(C)c1 [Compound P17]
ALOMY PRE percentage damage (five point scale) [1]: 5 (5=80-100%) | AVEFA PRE percentage damage (five point scale) [2]: 3 (3=40-59%) | ECHCG PRE percentage damage (five point scale) [3]: 5 (5=80-100%) | LOLPE PRE percentage damage (five point scale) [4]: 4 (4=60-79%) | SETFA PRE percentage damage (five point scale) [5]: 4 (4=60-79%) | SETFA POST percentage damage (five point scale) [6]: 5 (5=80-100%) | ALOMY POST percentage damage (five point scale) [7]: 5 (5=80-100%) | AVEFA POST percentage damage (five point scale) [8]: 5 (5=80-100%) | ECHCG POST percentage damage (five point scale) [9]: 5 (5=80-100%) | LOLPE POST percentage damage (five point scale) [10]: 5 (5=80-100%)

CC#Cc1cc(C)c(C2C(=O)CC3(CCN(C(=O)COC(F)(F)F)CC3)CC2=O)c(C)c1 [Compound A199]
ALOMY PRE percentage damage (five point scale) [1]: 5 (5=80-100%) | AVEFA PRE percentage damage (five point scale) [2]: 5 (5=80-100%) | ECHCG PRE percentage damage (five point scale) [3]: 5 (5=80-100%) | LOLPE PRE percentage damage (five point scale) [4]: 5 (5=80-100%) | SETFA PRE percentage damage (five point scale) [5]: 5 (5=80-100%) | SETFA POST percentage damage (five point scale) [6]: 5 (5=80-100%) | ALOMY POST percentage damage (five point scale) [7]: 5 (5=80-100%) | AVEFA POST percentage damage (five point scale) [8]: 5 (5=80-100%) | ECHCG POST percentage damage (five point scale) [9]: 5 (5=80-100%) | LOLPE POST percentage damage (five point scale) [10]: 5 (5=80-100%)

CC#Cc1cc(C)c(C2=C(OC(=O)OC)CC3(CCN(C(=O)NOC)CC3)CC2=O)c(C)c1 [Compound P14]
ALOMY PRE percentage damage (five point scale) [1]: 5 (5=80-100%) | AVEFA PRE percentage damage (five point scale) [2]: 5 (5=80-100%) | ECHCG PRE percentage damage (five point scale) [3]: 5 (5=80-100%) | LOLPE PRE percentage damage (five point scale) [4]: 5 (5=80-100%) | SETFA PRE percentage damage (five point scale) [5]: 5 (5=80-100%) | SETFA POST percentage damage (five point scale) [6]: 5 (5=80-100%) | ALOMY POST percentage damage (five point scale) [7]: 5 (5=80-100%) | AVEFA POST percentage damage (five point scale) [8]: 5 (5=80-100%) | ECHCG POST percentage damage (five point scale) [9]: 5 (5=80-100%) | LOLPE POST percentage damage (five point scale) [10]: 5 (5=80-100%)

CC#Cc1cc(C)c(C2C(=O)CC3(CCN(C(=O)C4=NOCC4)CC3)CC2=O)c(C)c1 [Compound A88]
ALOMY PRE percentage damage (five point scale) [1]: 5 (5=80-100%) | AVEFA PRE percentage damage (five point scale) [2]: 5 (5=80-100%) | ECHCG PRE percentage damage (five point scale) [3]: 5 (5=80-100%) | LOLPE PRE percentage damage (five point scale) [4]: 5 (5=80-100%) | SETFA PRE percentage damage (five point scale) [5]: 5 (5=80-100%) | SETFA POST percentage damage (five point scale) [6]: 5 (5=80-100%) | ALOMY POST percentage damage (five point scale) [7]: 5 (5=80-100%) | AVEFA POST percentage damage (five point scale) [8]: 5 (5=80-100%) | ECHCG POST percentage damage (five point scale) [9]: 5 (5=80-100%) | LOLPE POST percentage damage (five point scale) [10]: 5 (5=80-100%)

Reference: patent US12043599B2, “Herbicidal compounds” (SYNGENTA PARTICIPATIONS AG, priority 2018, dated 2024)
